Laboratory results published in BindingDB's records for patent US11248013 (Rakovina Therapeutics, 2022).

Molecular target: Poly [ADP-ribose] polymerase 1 (Homo sapiens, UniProt P09874)
Assay: Enzyme Assay
Method: Inhibition of PARP-1 enzymatic activities was measured using an HT Universal Colorimetric PARP Assay Kit (Trevigen, catalogue #4677-096-K) following the standard procedures. Serial dilutions of PARP compounds were added to appropriate wells. The compound was incubated with PARP enzyme at RT for 10 min, and the reaction was initiated by addition of the PARP substrate cocktail, Each concentration of compound was tested in triplicate wells. After 15 min reaction, the reaction was stopped, and the Strep-HRP was added into each well and incubated for 1 h at RT. After addition of TACS-Sapphire colorimetric substrate and incubated in dark for 15 min, the OD450 was read out with an EnVision instrument. IC50 values (the concentration at which 50% of the enzyme activity is inhibited) were calculated, which are determined over a range of different concentrations, normally from 10 uM to 0.1 nM.

Sequence of Poly [ADP-ribose] polymerase 1 (P09874 whole entry): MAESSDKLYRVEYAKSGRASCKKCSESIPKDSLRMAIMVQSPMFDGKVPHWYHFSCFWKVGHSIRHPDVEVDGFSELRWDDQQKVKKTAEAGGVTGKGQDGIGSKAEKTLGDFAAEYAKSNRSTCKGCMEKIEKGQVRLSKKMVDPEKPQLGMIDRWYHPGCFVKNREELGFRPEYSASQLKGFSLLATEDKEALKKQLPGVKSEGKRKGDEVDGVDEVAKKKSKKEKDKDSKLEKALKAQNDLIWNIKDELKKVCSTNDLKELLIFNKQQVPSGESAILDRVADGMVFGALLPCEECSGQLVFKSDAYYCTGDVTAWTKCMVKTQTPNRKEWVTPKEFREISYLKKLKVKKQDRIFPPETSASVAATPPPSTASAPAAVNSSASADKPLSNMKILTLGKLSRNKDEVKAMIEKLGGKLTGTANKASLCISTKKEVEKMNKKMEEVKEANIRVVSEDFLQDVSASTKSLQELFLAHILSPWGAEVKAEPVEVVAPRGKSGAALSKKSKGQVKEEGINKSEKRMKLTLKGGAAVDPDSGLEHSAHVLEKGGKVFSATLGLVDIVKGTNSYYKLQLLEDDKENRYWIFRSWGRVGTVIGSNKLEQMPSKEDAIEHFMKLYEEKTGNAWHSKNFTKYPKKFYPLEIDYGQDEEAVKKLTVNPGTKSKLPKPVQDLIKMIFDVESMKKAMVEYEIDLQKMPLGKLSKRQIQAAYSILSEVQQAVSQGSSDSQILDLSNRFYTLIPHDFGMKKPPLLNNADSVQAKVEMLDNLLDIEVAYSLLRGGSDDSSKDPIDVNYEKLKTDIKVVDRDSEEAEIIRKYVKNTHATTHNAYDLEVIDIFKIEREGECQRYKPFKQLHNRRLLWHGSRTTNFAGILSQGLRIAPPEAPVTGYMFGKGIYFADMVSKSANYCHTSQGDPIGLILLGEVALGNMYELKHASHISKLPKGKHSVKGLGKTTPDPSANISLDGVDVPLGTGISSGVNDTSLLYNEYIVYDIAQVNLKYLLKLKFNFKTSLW

IC50: in the range around 550 nM
SMILES: CC(C)(C)C(=O)N1CCP(=O)(c2cc(Cc3n[nH]c(=O)c4ccccc34)ccc2F)CC1 [US11248013, Example 10]
